Results published in patent US5102871A, “Nutrient composition” (Kyowa Hakko Kogyo Co., Ltd., priority 1989, dated 1992).
Values belong to the compound of their own block, whether it stands above or below them. Bridge positions count the residues as written; N and C are the ends. Peptide text beside a SMILES is read from it. I, II: the chains in the order shown.

Experiments:
[1] = 25° C.; background statement; cited from earlier work
Solubility in water = type: physicochemical; conditions: pH 6.5, 25° C.
Excerpt: The solubility of γ-Glu-Cys-Cys and (γ-Glu-Cys)2 was compared with that of cystine and known cystine-containing peptides.

[2] = Stability in solution on heat treatment and on standing; type: physicochemical; conditions: 10 mM
[3] = target: T1, γ-glutamyltransferase prepared from swine kidney (Sus scrofa, UniProt P20735); assay: Hydrolysis by γ-glutamyltransferase; type: biochemical; conditions: 5 mM peptide, Tris-hydrochloride buffer pH 7, 37° C., 120 minutes
T1 construct: γ-glutamyltransferase prepared from swine kidney; from tissue; host or cells: swine kidney
Procedure: It was thus recognized that there was a difference between these peptides with respect to utilization in vivo.
A peptide was dissolved in Tris-hydrochloride buffer solution (pH 7) in a concentration of 5 mM and γ-glutamyltransferase prepared from swine kidney was added to the solution. After reaction at 37° C. for 120 minutes, the amount of the remaining peptide was determined.

[4] = In vitro hydrolysis in human plasma; type: in vitro ADME; conditions: 37° C., 30 minutes; for remaining at 0.5 h, 2.18 mM: read-out: Residual amount in plasma (%)
Procedure: It was thus recognized that there was a clear difference between these peptides with respect to utilization in vivo.
To 100 μl of plasma collected and prepared from human was added 10 μl of a 24 mM solution of a peptide in physiological saline. After reaction at 37° C. for 30 minutes, the amount of the remaining peptide was determined.

[5] = Uptake by mouse kidney after tail vein administration; type: in vivo, C3H/He mice; conditions: 250 μmoles/kg tail vein, mean (SEM on next line)
Procedure: Uptake of γ-Glu-Cys-Cys and (γ-Glu-Cys)2 by mouse kidney was compared with that of (Ala-Cys)2 according to the test method described below.
Physiological saline solutions of γ-Glu-Cys-Cys, (γ-Glu-Cys)2 and (Ala-Cys)2 were administered respectively to groups of C3H/He mice (6 weeks of age, male, weighing 22 g) through the tail vein in a dose of 250 μmoles/kg body weight, and the kidney was excised 1, 5 and 20 minutes after the administration, followed by determination of glutamic acid, alanine and cystine in the kidney.

[6] = In vitro hydrolysis in mouse plasma; type: in vitro ADME, C3H/He mouse; conditions: 37° C., 30 minutes; for remaining at 0.5 h, 2.46 mM: male, C3H/He mouse plasma, mean of five mice, read-out: Residual amount in plasma (%)
Procedure: To 50 μl of plasma collected and prepared from C3H/He mouse (6 weeks of age, male, weighing 22 g) was added 5 μl of a 27.1 mM solution of a peptide in physiological saline, followed by reaction at 37° C. for 30 minutes.

[7] = administered subcutaneously to mice; Anderson and Meister 1983; cited from earlier work
[8] = Stability on heating in jelly-like nutrient preparation (Example 3); type: physicochemical; conditions: 100° C. for 30 minutes, Example 3 composition

T1 sequence (P20735 1-379 limits assumed): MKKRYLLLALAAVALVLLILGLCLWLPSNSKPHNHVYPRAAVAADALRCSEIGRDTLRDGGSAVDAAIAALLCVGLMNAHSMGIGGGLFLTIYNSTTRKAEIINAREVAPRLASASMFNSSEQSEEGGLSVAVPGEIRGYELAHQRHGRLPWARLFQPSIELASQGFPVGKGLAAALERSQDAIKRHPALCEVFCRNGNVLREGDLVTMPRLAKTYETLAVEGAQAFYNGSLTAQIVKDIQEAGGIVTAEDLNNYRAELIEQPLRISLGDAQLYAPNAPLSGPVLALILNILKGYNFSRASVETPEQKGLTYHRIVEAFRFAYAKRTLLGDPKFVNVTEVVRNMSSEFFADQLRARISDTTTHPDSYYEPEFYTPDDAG
T1 sequence (P20735 380-568 limits assumed): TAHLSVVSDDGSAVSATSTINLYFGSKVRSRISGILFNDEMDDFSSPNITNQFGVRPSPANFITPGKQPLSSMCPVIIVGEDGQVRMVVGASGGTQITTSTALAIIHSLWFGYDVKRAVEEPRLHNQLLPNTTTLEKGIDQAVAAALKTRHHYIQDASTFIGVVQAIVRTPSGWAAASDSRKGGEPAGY

Solubility in 1000 ml of water (Solubility in water): 0.1 g
SMILES: N[C@@H](CSSC[C@H](N)C(=O)O)C(=O)O [Cystine, L-cystine]
solubility in water [1]: less than 0.11 g/l

Decomposition on standing ([2]; pH 6.5, 40° C. for 60 days): not decomposed
Decomposition by heat treatment ([2]; pH 6.5, 110° C. for 20 minutes): hardly decomposed
Hydrolysis by γ-glutamyltransferase [3]: almost completely hydrolyzed
remaining at 0.5 h, 2.18 mM [4]: 85%
Glu (glutamic acid) in kidney ([5]; 0 min after administration): 5.54 μmole/g wet weight of kidney
Glu (glutamic acid) in kidney ([5]; 1 min after administration): 14.82 μmole/g wet weight of kidney
Glu (glutamic acid) in kidney ([5]; 5 min after administration): 22.5 μmole/g wet weight of kidney
Glu (glutamic acid) in kidney ([5]; 20 min after administration): 18.14 μmole/g wet weight of kidney
remaining at 0.5 h, 2.46 mM [6]: 84%
Solubility in 1000 ml of water (Solubility in water): > 70 g
SMILES: N[C@@H](CCC(=O)N[C@@H](CSSC[C@H](NC(=O)CC[C@H](N)C(=O)O)C(=O)O)C(=O)O)C(=O)O [(γ-Glu-Cys)2, L-glutamyl-L-cysteine disulfide]
Hydrolysis in human plasma [4]: hydrolyzed in plasma only with difficulty
Hydrolysis in mouse plasma [6]: hydrolyzed in plasma only with difficulty
Utilization in the synthesis of kidney glutathione [7]: can be utilized in the synthesis of kidney glutathione

Solubility in 1000 ml of water (Solubility in water): 8.1 g
SMILES: C[C@H](NC(=O)[C@@H](N)CSSC[C@H](N)C(=O)N[C@@H](C)C(=O)O)C(=O)O [(Cys-Ala)2, L-cysteinyl-bis-L-alanine] (I: H-Cys-Ala-OH / II: H-Cys-Ala-OH; disulfide I:1-II:1)

remaining at 0.5 h, 2.18 mM [4]: 67%
Stability under heating of the jelly-like preparation [8]: stably maintained
Glu (glutamic acid) in kidney ([5]; 0 min after administration): 5.54 μmole/g wet weight of kidney
Glu (glutamic acid) in kidney ([5]; 1 min after administration): 13.09 μmole/g wet weight of kidney
Glu (glutamic acid) in kidney ([5]; 5 min after administration): 20.32 μmole/g wet weight of kidney
Glu (glutamic acid) in kidney ([5]; 20 min after administration): 15.1 μmole/g wet weight of kidney
remaining at 0.5 h, 2.46 mM [6]: 53%
Solubility in 1000 ml of water (Solubility in water): > 70 g
SMILES: N[C@@H](CCC(=O)N[C@@H](CSSC[C@H](N)C(=O)O)C(=O)O)C(=O)O [γ-Glu-Cys-Cys]
Hydrolysis in human plasma [4]: hydrolyzed in plasma only with difficulty
Hydrolysis in mouse plasma [6]: hydrolyzed in plasma only with difficulty

remaining at 0.5 h, 2.18 mM [4]: 35%
Solubility in 1000 ml of water (Solubility in water): > 50 g
SMILES: NCC(=O)N[C@@H](CSSC[C@H](NC(=O)CN)C(=O)O)C(=O)O [(Gly-Cys)2, bis-glycyl-L-cystine, reference compound] (I: H-Gly-Cys-OH / II: H-Gly-Cys-OH; disulfide I:2-II:2)

Hydrolysis by γ-glutamyltransferase [3]: not hydrolyzed
remaining at 0.5 h, 2.18 mM [4]: 30%
Solubility in 1000 ml of water (Solubility in water): > 50 g
SMILES: N[C@@H](CC(=O)O)C(=O)N[C@@H](CSSC[C@H](NC(=O)[C@@H](N)CC(=O)O)C(=O)O)C(=O)O [(Asp-Cys)2, N,N'-bis-α-aspartyl-L-cystine] (I: H-Asp-Cys-OH / II: H-Asp-Cys-OH; disulfide I:2-II:2)

Solubility in 1000 ml of water (Solubility in water): > 50 g
SMILES: N[C@@H](CS)C(=O)NCCCC[C@H](NC(=O)[C@@H](N)CS)C(=O)O [Cys-Lys(Cys), N^2 -cysteinyl-N^6 -L-cysteinyl-L-lysine] (H-Cys-Lys(Cys)-OH)

Hydrolysis by γ-glutamyltransferase [3]: not hydrolyzed
remaining at 0.5 h, 2.18 mM [4]: 26%
Ala (alanine) in kidney ([5]; 0 min after administration): 2.33 μmole/g wet weight of kidney
Ala (alanine) in kidney ([5]; 1 min after administration): 2.87 μmole/g wet weight of kidney
Ala (alanine) in kidney ([5]; 5 min after administration): 2.59 μmole/g wet weight of kidney
Ala (alanine) in kidney ([5]; 20 min after administration): 2.16 μmole/g wet weight of kidney
remaining at 0.5 h, 2.46 mM [6]: 0%
Solubility in 1000 ml of water (Solubility in water): > 50 g
SMILES: C[C@H](N)C(=O)N[C@@H](CSSC[C@H](NC(=O)[C@H](C)N)C(=O)O)C(=O)O [(Ala-Cys)2, bis-α-L-alanyl-L-cystine, reference compound] (I: H-Ala-Cys-OH / II: H-Ala-Cys-OH; disulfide I:2-II:2)
